# Data as given in patent US20240174696A1, “2,8-DIAZASPIRO[4.5]DECANE COMPOUNDS” (Genentech, Inc., priority 2021, published 2024).
# Structures can show the parent of a compound that is named as a salt.
# Target: Human LATS2 catalytic domain (Homo sapiens (Human), UniProt Q9NRM7)
# Test: LATS2 High ATP HTRF Assay
# Type: biochemical
# Settings: no asterisk: LATS2 High ATP HTRF Assay, 5000 μM ATP, 0.05 nM LATS2
# Procedure: Human LATS2 catalytic domain which contains the amino acids G553-V1088 (accession NP_055387) was purified in-house. The LATS2 catalytic domain was co-purified with Mob1b (accession NP_775739). The LATS2 biochemical HTRF assay was performed using the HTRF KinEASE-STK S1 Kit (Cisbio, Cat #62ST1PEC), following the protocol from the manufacturer. Compounds were dispensed by the Echo Liquid Handler (Labcyte) into a white 384-well plate (PerkinElmer, Cat #6008289). 3 uL of 2×LATS2 enzyme solution was added to the compounds, following by a 10 minute incubation at room temperature. Then, 2×ATP and STK S1 peptide solution was added to initiate the one hour enzyme reaction at room temperature. The final condition of the reaction was 0.2 nM LATS2, 50 μM ATP, 0.5 μM STK S1 peptide in 50 mM HEPES pH7.2, 10 mM MgCl2, 0.1% BGG, 0.005% Brij-35, 1 mM DTT. The reaction was quenched by adding 6 uL of the detection mixture which contained Streptavidin XL665 and STK Antibody-Cryptate (Cisbio), incubate for 1 hour at room temperature. The HTRF (665 nm/620 nm) signal was read on the Envision plater reader (PerkinElmer). The IC50 values were determined by fitting the % inhibition with a nonlinear four-parameter logistical equation. The Ki values were calculated using the Cheng-Prusoff equation for a competitive inhibitor, IC50═Ki (1+S/Km)+M [E] with ATP Km for LATS2=105 μM.
# The LATS2 high ATP HTRF assay was performed using the same protocol as the Standard LATS2 HTRF assay. The final condition of the reaction was 0.05 nM LATS2, 5000 μM ATP, 0.5 μM STK S1 peptide in 50 mM HEPES pH7.2, 10 mM MgCl2, 0.1% BGG, 0.005% Brij-35, 1 mM DTT and the 2 hours enzyme reaction at room temperature.
# Human LATS2 catalytic domain, sequence (Q9NRM7 553-1088): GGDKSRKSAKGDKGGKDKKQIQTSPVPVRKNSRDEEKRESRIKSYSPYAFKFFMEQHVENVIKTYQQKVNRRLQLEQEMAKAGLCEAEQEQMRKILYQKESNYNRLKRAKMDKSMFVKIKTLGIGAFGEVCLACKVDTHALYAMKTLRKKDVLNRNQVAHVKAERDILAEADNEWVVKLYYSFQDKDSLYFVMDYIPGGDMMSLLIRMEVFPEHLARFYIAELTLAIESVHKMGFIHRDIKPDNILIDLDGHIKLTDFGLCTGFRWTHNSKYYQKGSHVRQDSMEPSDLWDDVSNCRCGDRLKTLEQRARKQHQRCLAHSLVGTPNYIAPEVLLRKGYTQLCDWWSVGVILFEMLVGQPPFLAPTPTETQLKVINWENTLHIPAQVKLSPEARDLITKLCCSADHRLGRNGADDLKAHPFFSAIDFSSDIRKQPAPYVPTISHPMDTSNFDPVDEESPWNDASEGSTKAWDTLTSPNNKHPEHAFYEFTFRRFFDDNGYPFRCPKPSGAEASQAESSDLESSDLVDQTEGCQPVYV
# Human LATS2 catalytic domain, sequence (Q7L9L4 whole entry partner, the tested form may be a part): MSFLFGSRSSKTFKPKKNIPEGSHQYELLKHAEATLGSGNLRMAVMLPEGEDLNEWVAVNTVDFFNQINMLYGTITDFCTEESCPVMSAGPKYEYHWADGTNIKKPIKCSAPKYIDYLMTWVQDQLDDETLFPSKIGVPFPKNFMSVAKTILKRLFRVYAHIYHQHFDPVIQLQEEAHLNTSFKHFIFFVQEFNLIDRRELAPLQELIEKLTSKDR
row,Structure (SMILES),Ki [nM]
1,"N#Cc1[nH]ncc1-c1nc(N2CCC3(CCNC3)CC2)c2ccncc2n1 [Compound 155, 4-(4-(2,8-diazaspiro[4.5]decan-8-yl)pyrido[3,4-d]pyrimidin-2-yl)-1H-pyrazole-5-carbonitrile]",51.4
2,"CCC(=O)NCc1cc2c(N3CCC4(CCNC4)CC3)nc(-c3ccncc3)nc2cn1 [Compound 159, N-((2-(pyridin-4-yl)-4-(2,8-diazaspiro[4.5]decan-8-yl)pyrido[3,4-d]pyrimidin-6-yl)methyl)propionamide]",6.58
3,"Fc1[nH]ncc1-c1nc(N2CCC3(CCNC3)CC2)c2ccncc2n1 [Compound 188, 2-(5-fluoro-1H-pyrazol-4-yl)-4-(2,8-diazaspiro[4.5]decan-8-yl)pyrido[3,4-d]pyrimidine]",5.96
4,"c1cc(-c2nc(N3CCC4(CCNC4)CC3)c3c(C4CC4)cncc3n2)ccn1 [Compound 191, 5-cyclopropyl-2-(pyridin-4-yl)-4-(2,8-diazaspiro[4.5]decan-8-yl)pyrido[3,4-d]pyrimidine]",0.028
5,"FC(F)(F)Cc1nccc2c(N3CCC4(CCNC4)CC3)nc(-c3ccncc3)nc12 [Compound 192, 2-(pyridin-4-yl)-4-(2,8-diazaspiro[4.5]decan-8-yl)-8-(2,2,2-trifluoroethyl)pyrido[3,4-d]pyrimidine]",1.38
6,"FC(F)(F)Cc1cc2c(N3CCC4(CCNC4)CC3)nc(-c3ccncc3)nc2cn1 [Compound 193, 2-(pyridin-4-yl)-4-(2,8-diazaspiro[4.5]decan-8-yl)-6-(2,2,2-trifluoroethyl)pyrido[3,4-d]pyrimidine]",0.041
7,"Cc1n[nH]cc1-c1nc(N2CCC3(CCN(C)C3)CC2)c2cc(CC(F)(F)F)ncc2n1 [Compound 194, 2-(3-methyl-1H-pyrazol-4-yl)-4-(2-methyl-2,8-diazaspiro[4.5]decan-8-yl)-6-(2,2,2-trifluoroethyl)pyrido[3,4-d]pyrimidine]",0.12
8,"Cc1cnsc1-c1nc(N2CCC3(CCNC3)CC2)c2ccncc2n1 [Compound 244, 5-(4-(2,8-diazaspiro[4.5]decan-8-yl)pyrido[3,4-d]pyrimidin-2-yl)-4-methylisothiazole]",13
9,"CC(=O)N1CC(Oc2cncc3nc(-c4ccncc4)nc(N4CCC5(CCN(C)C5)CC4)c23)C1 [Compound 278, 1-(3-((4-(2-Methyl-2,8-diazaspiro[4.5]decan-8-yl)-2-(pyridin-4-yl)pyrido[3,4-d]pyrimidin-5-yl)oxy)azetidin-1-yl)ethan-1-one]",11
10,"COc1cncc2nc(-c3cn[nH]c3C)nc(N3CCC4(CCN(CC(F)F)C4)CC3)c12 [Compound 281, 4-(2-(2,2-difluoroethyl)-2,8-diazaspiro[4.5]decan-8-yl)-5-methoxy-2-(5-methyl-1H-pyrazol-4-yl)pyrido[3,4-d]pyrimidine]",0.015
11,"COc1cncc2nc(-c3ccncc3)nc(N3CCC4(CCN(CC5(F)COC5)C4)CC3)c12 [Compound 282, 4-[2-[(3-Fluorooxetan-3-yl)methyl]-2,8-diazaspiro[4.5]decan-8-yl]-5-methoxy-2-(4-pyridyl)pyrido[3,4-d]pyrimidine]",0.039
12,"c1cc(-c2cc(N3CCC4(CCNC4)CC3)c3ccncc3n2)ncn1 [Example 201, 2-(pyrimidin-4-yl)-4-(2,8-diazaspiro[4.5]decan-8-yl)-1,7-naphthyridine trifluoroacetate]",11.3
13,"COc1nccc2c(N3CCC4(CCN(C)C4)CC3)nc(-c3ccncc3)nc12 [Example 203, 8-methoxy-4-(2-methyl-2,8-diazaspiro[4.5]decan-8-yl)-2-(pyridin-4-yl)pyrido[3,4-d]pyrimidine]",80.2
14,"Cc1nn(C)cc1-c1nc(N2CCC3(CC2)CCN(C2CCCC2)C3)c2ccncc2n1 [Example 208, 4-(2-cyclopentyl-2,8-diazaspiro[4.5]decan-8-yl)-2-(1,3-dimethyl-1H-pyrazol-4-yl)pyrido[3,4-d]pyrimidine]",60
15,"Cc1n[nH]cc1-c1nc(N2CCC3(CCN(CCS(=O)(=O)N(C)C)C3)CC2)c2ccncc2n1 [Example 210, N,N-dimethyl-2-(8-(2-(3-methyl-1H-pyrazol-4-yl)pyrido[3,4-d]pyrimidin-4-yl)-2,8-diazaspiro[4.5]decan-2-yl)ethanesulfonamide]",0.25
16,"Cc1n[nH]cc1-c1nc(N2CCC3(CCNC3)CC2)c2ccnc(O)c2n1 [Example 237, 2-(3-methyl-1H-pyrazol-4-yl)-4-(2,8-diazaspiro[4.5]decan-8-yl)pyrido[3,4-d]pyrimidin-8-ol]",19

# Results, then the compound that gave them:
row,Ki [nM],Structure (SMILES)
1,0.97,"O[C@H]1CC[C@@H]1N1CCC2(CCN(c3nc(-c4ccncc4)nc4cnccc34)CC2)C1 (single isomer, unassigned) [Compound 178]"
2,16.7,"CC(=O)N1CCC2(CCN(c3nc(-c4ccncc4)nc4cnccc34)CC2)C1 [Compound 125, 1-(8-(2-(pyridin-4-yl)pyrido[3,4-d]pyrimidin-4-yl)-2,8-diazaspiro[4.5]decan-2-yl)ethan-1-one]"
3,19.1,"c1cc(-c2nc(N3CCC4(CCN(c5cc[nH]n5)C4)CC3)c3ccncc3n2)ccn1 [Compound 139, 4-(2-(1H-pyrazol-3-yl)-2,8-diazaspiro[4.5]decan-8-yl)-2-(pyridin-4-yl)pyrido[3,4-d]pyrimidine]"
4,88.4,"c1ccc(N2CCC3(CCN(c4nc(-c5ccncc5)nc5cnccc45)CC3)C2)cc1 [Compound 140, 4-(2-phenyl-2,8-diazaspiro[4.5]decan-8-yl)-2-(pyridin-4-yl)pyrido[3,4-d]pyrimidine]"
5,7.4,"CN(C)C(=O)C1CC2(CCN(c3nc(-c4ccncc4)nc4cnccc34)CC2)CN1 (stereo not drawn) [Compound 173, N,N-dimethyl-8-(2-(pyridin-4-yl)pyrido[3,4-d]pyrimidin-4-yl)-2,8-diazaspiro[4.5]decane-3-carboxamide]"
6,11.1,"O=C(C1CC2(CCN(c3nc(-c4ccncc4)nc4cnccc34)CC2)CN1)N1CCCC1 (stereo not drawn) [Compound 174, (8-(2-(pyridin-4-yl)pyrido[3,4-d]pyrimidin-4-yl)-2,8-diazaspiro[4.5]decan-3-yl)(pyrrolidin-1-yl)methanone]"
7,22.6,"O=C(C1CC2(CCN(c3nc(-c4ccncc4)nc4cnccc34)CC2)CN1)N1CCOCC1 (stereo not drawn) [Compound 175, morpholino(8-(2-(pyridin-4-yl)pyrido[3,4-d]pyrimidin-4-yl)-2,8-diazaspiro[4.5]decan-3-yl)methanone]"
8,17.5,"N#Cc1cnccc1-c1nc(N2CCC3(CCNC3)CC2)c2ccncc2n1 [Compound 183, 4-(4-(2,8-diazaspiro[4.5]decan-8-yl)pyrido[3,4-d]pyrimidin-2-yl)nicotinonitrile]"
9,0.039,"CN1CCC2(CCN(c3nc(-c4ccncc4)nc4cnc(CC(F)(F)F)cc34)CC2)C1 [Compound 195, 4-(2-methyl-2,8-diazaspiro[4.5]decan-8-yl)-2-(pyridin-4-yl)-6-(2,2,2-trifluoroethyl)pyrido[3,4-d]pyrimidine]"
10,0.096,"COc1cncc2nc(-c3ccncc3)nc(N3CCC4(CCN(CC(C)(O)C(F)(F)F)C4)CC3)c12 (stereo not drawn) [Compound 283, 1,1,1-Trifluoro-3-[8-[5-methoxy-2-(4-pyridyl)pyrido[3,4-d]pyrimidin-4-yl]-2,8-diazaspiro[4.5]decan-2-yl]-2-methyl-propan-2-ol]"
11,4.1,"CN1CCC2(CCN(c3nc(-c4ccncc4)nc4c(C#N)nccc34)CC2)C1 [Compound 284, 4-(2-Methyl-2,8-diazaspiro[4.5]decan-8-yl)-2-(pyridin-4-yl)pyrido[3,4-d]pyrimidine-8-carbonitrile]"
12,14.6,"c1cc(-c2cc(N3CCC4(CCNC4)CC3)c3ccncc3n2)ccn1 [Example 200, 2-(Pyridin-4-yl)-4-(2,8-diazaspiro[4.5]decan-8-yl)-1,7-naphthyridine]"
13,23,"[O-][n+]1ccc2c(N3CCC4(CCNC4)CC3)nc(-c3ccncc3)nc2c1 [Example 207, 2-(pyridin-4-yl)-4-(2,8-diazaspiro[4.5]decan-8-yl)pyrido[3,4-d]pyrimidine 7-oxide]"
14,45,"CN1CCC2(CCN(c3nc(-c4ccncc4)nc4cnc(C(F)(F)F)cc34)CC2)C1 [Example 209, 4-(2-methyl-2,8-diazaspiro[4.5]decan-8-yl)-2-(pyridin-4-yl)-6-(trifluoromethyl)pyrido[3,4-d]pyrimidine]"
